Like-named read-outs stand apart in the source and are kept apart here.
Columns and labels:
[1] = target: T1, sEH (Homo sapiens, UniProt P34913); assay: sEH inhibitory activity assay (fluorometric, PHOME substrate); assay type: biochemical; settings: for IC50: PHOME substrate, triplicate, mean ± SD; for inhibition at 100 µM: read-out: sEH inhibitory activity
T1 construct: purchased Cayman 10011669
T1 sequence (P34913 1-555): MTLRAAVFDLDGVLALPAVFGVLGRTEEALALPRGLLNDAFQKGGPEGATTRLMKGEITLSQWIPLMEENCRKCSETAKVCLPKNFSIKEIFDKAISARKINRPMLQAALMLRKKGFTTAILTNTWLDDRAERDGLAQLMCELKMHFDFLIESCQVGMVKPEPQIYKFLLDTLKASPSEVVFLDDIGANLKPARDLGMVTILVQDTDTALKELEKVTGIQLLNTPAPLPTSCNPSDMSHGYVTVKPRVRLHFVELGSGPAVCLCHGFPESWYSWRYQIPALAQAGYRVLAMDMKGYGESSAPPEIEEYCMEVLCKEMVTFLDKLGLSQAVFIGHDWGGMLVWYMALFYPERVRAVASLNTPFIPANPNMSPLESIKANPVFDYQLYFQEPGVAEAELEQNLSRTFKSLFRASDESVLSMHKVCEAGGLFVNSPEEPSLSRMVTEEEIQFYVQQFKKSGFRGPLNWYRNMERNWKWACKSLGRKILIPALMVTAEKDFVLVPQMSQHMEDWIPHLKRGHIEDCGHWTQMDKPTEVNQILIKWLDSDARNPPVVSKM
Experimental: The tests were conducted using a multi plate system of the fluorometric photometer at excitation and emission wavelengths of 330 and 465 nm, respectively. […] To identify potential inhibitors of sEH, all compounds were measured at 100 µM concentration.
(§1) The inhibitory activities on the sEH were measured according to the modified methods in previous papers. PHOME was used as a substrate to examine the inhibitions of sEH, which was determined using a hydrolysis reaction of PHOME. sEH was diluted in Bis Tris–HCl buffer (25 mM containing 0.1 mg/mL BSA, pH 7.0) at 12.15 ng/mL. In a 96-well plate, 130 μL of recombinant human sEH, 20 μL of sample, and 50 μL of 40 mM PHOME were added. The absorbance was measured at excitation filter 330 nm and emission filter 465 nm for 30 min at an interval of 30 s after adding the last solution in a 96-well plate. All assays were performed in triplicate, using microplate reader (Tecan infinite F200, Grödig, Austria). Inhibitory activity (%) was calculated using the following equation:(1) Inhibitory Activity (%)=100−[Δsample / Δcontrol]×100 where Δcontrol and Δsample are the changed fluorescence […], respectively.
The enzyme inhibition parameter IC50 was calculated by fitting hyperbola equations to the data using nonlinear regression of the plot using Sigma Plot (SPP Inc., Chicago, IL, USA.). The experimental results were performed in triplicate, and presented as the means ± SD.

[2] = target: T1, sEH; assay: Enzyme kinetics on sEH (Lineweaver–Burk and Dixon plots); assay type: biochemical; settings: for Ki: Dixon plot; for sEH inhibition Type: Lineweaver–Burk plots, various substrate concentrations
Experimental: The enzymatic kinetics of these compounds (7–10) were determined by calculating the initial velocity of each inhibitor at various substrate concentrations (0.19–5 mM) (Figure 2). […] This mixed type had bound to allosteric sites, a site different from the active site. In addition, the inhibitory constant values (Ki) were calculated using the Dixon plot revised from the Lineweaver–Burk plot.
as §1

[3] = target: T1, sEH; set-up: method as in PMID 26548595, PMID 32972033, doi:10.1039/C6RA04207D; settings: earlier reports; cited from earlier work

Structure (SMILES)	IC50 [1] [µM]	inhibition at 100 µM ([1]; at 100 µM concentration) [%]	Ki [2] [µM]	sEH inhibition Type [2]	sEH inhibitory activity previously shown [3]	inhibition at 100 µM [1] [%]
COC(=O)[C@H](O)Cc1ccc(O)cc1 [Compound 6, latifolicinin C]	52 ± 1.9	> 50	–	–	–	–
COc1ccc(CCO[C@@H]2O[C@H](CO)[C@@H](OC(=O)/C=C/c3ccc(O)c(OC)c3)[C@H](O[C@@H]3O[C@@H](C)[C@H](O)[C@@H](O)[C@H]3O)[C@H]2O)cc1O [Compound 8, martynoside]	19.5 ± 4.1	> 50	5.7	mixed type inhibitor	significant sEH inhibitory activity	–
COC(=O)[C@@H](Cc1ccc(O)c(O)c1)OC(=O)/C=C/c1ccc(O)c2c1[C@H](C(=O)OC)[C@@H](c1ccc(O)c(O)c1)O2 [Compound 9, dimethyl lithospermate]	10.6 ± 3.2	> 50	1.9	competitive inhibitors	–	–
C=C(C)[C@@H]1CC[C@]2(C(=O)O)CC[C@]3(C)[C@H](CC[C@@H]4[C@@]5(C)CC[C@H](O)C(C)(C)[C@@H]5CC[C@]43C)[C@@H]12 [Compound 1, betulinic acid]	67.8 ± 3.2	–	–	–	significant sEH inhibitory activity	> 50
COC(=O)[C@H]1c2c(/C=C/C(=O)O[C@H](Cc3ccc(O)c(O)c3)C(=O)O)ccc(O)c2O[C@@H]1c1ccc(O)c(O)c1 [Compound 10, 9″″-methyl lithospermate]	35.7 ± 2.1	> 50	7.6	competitive inhibitors	–	–
COC(=O)[C@@H](Cc1ccc(O)c(O)c1)OC(=O)/C=C/c1ccc(O)c(O)c1 [Compound 7, methyl rosmarinate]	16.8 ± 0.6	> 50	9.2	competitive inhibitors	–	–
C[C@H]1[C@H](C)CC[C@]2(C(=O)O)CC[C@]3(C)C(=CC[C@@H]4[C@@]5(C)CC[C@H](O)C(C)(C)[C@@H]5CC[C@]43C)[C@H]12 [Compound 3, ursolic acid]	42.1 ± 4	> 50	–	–	significant sEH inhibitory activity	–

Source: article PMC7917821, “In Vitro and In Silico Studies of Soluble Epoxide Hydrolase Inhibitors from the Roots of Lycopus lucidus” (Plants, 2021)
